Measurements taken from PubChem BioAssay AID256 (DTP/NCI, 2004).
Values joined by “and” are separate entries in the source; they are usually repeats but may differ in a detail not shown here. Identical values can stand only once. Toxic doses and inconclusive results are not listed.

Test system: CD2F1 mice, L1210 leukemia ip, survival T/C
Assay: NCI In Vivo Anticancer Drug Screen. Data for tumor model L1210 Leukemia (intraperitoneal) in CD2F1 (CDF1) mice
Details: higher = longer survival
Outline: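 Transplantable tumor in mice; compound-treated vs vehicle-treated groups. Read-out = treated/control ratio of the measured endpoint.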

[1] = endpoint: mean survival time, dose: 100.0 mg/kg/injection, schedule: Q01DX009 (ip), vehicle: saline with Tween-80
[2] = endpoint: mean survival time, dose: 100.0 mg/kg/injection, schedule: Q04DX003 (ip), vehicle: saline with Tween-80
[3] = endpoint: mean survival time, dose: 200.0 mg/kg/injection, schedule: Q01DX009 (ip), vehicle: saline with Tween-80
[4] = endpoint: mean survival time, dose: 200.0 mg/kg/injection, schedule: Q04DX003 (ip), vehicle: saline with Tween-80
[5] = endpoint: mean survival time, dose: 400.0 mg/kg/injection, schedule: Q01DX009 (ip), vehicle: saline with Tween-80
[6] = endpoint: mean survival time, dose: 400.0 mg/kg/injection, schedule: Q04DX003 (ip), vehicle: saline with Tween-80
[7] = endpoint: mean survival time, dose: 50.0 mg/kg/injection, schedule: Q01DX009 (ip), vehicle: saline with Tween-80
[8] = endpoint: mean survival time, dose: 12.5 mg/kg/injection, schedule: Q01DX009 (ip), vehicle: saline with Tween-80
[9] = endpoint: mean survival time, dose: 25.0 mg/kg/injection, schedule: Q01DX009 (ip), vehicle: saline with Tween-80
[10] = endpoint: mean survival time, dose: 100.0 mg/kg/injection, schedule: Q01DX001 (ip), vehicle: saline
[11] = endpoint: mean survival time, dose: 200.0 mg/kg/injection, schedule: Q01DX001 (ip), vehicle: saline
[12] = endpoint: mean survival time, dose: 400.0 mg/kg/injection, schedule: Q01DX001 (ip), vehicle: saline
[13] = endpoint: mean survival time, dose: 50.0 mg/kg/injection, schedule: Q01DX001 (ip), vehicle: saline
[14] = endpoint: mean survival time, dose: 50.0 mg/kg/injection, schedule: Q01DX009 (ip), vehicle: Klucel (hydroxypropylcellulose) (HPC)

CC1(C)CCOC(CC(=O)OCc2ccccc2)=N1
T/C [1]: 96 % of control
T/C [2]: 93 % of control
T/C [3]: 96 % of control
T/C [4]: 92 % of control
T/C [5]: 95 % of control
T/C [6]: 88 % of control

CN(C)S(=O)(=O)c1ccccc1C(O)(c1ccccc1)c1ccccc1 (tested in a mixture with another compound)
T/C [2]: 92 % of control
T/C [4]: 87 % of control
T/C [6]: 98 % of control

O=C(c1ccccc1)N1CC2CC3OC3c3cccc1c32 (centres undefined)
T/C [7]: 102 % of control
T/C [1]: 98 % of control
T/C [3]: 94 % of control

O=c1nc(Oc2ccccc2)nc2ncccn12
T/C (endpoint: mean survival time, dose: 3.12 mg/kg/injection, schedule: Q01DX009 (ip), vehicle: saline with Tween-80): 100 % of control and 108 % of control
T/C (endpoint: mean survival time, dose: 6.25 mg/kg/injection, schedule: Q01DX009 (ip), vehicle: saline with Tween-80): 100 % of control and 101 % of control
T/C [8]: 97 % of control and 101 % of control
T/C [9]: 98 % of control and 99 % of control
T/C [7]: 97 % of control and 102 % of control

Cc1cc(C)c(CC(C)C)c(C)c1
T/C [10]: 98 % of control
T/C [11]: 98 % of control
T/C [12]: 98 % of control

C=CCCCCCCCCCCC(=O)OC
T/C [1]: 106 % of control
T/C [2]: 93 % of control
T/C [3]: 106 % of control
T/C [4]: 94 % of control
T/C [5]: 101 % of control

CC1(C)OCC2OC3(C(=O)O)OC(C)(C)OC3C2O1 (centres undefined)
T/C (endpoint: mean survival time, dose: 50.0 mg/kg/injection, schedule: Q01DX005 (ip), vehicle: saline with Tween-80): 88 % of control
T/C [7]: 98 % of control
T/C (endpoint: mean survival time, dose: 50.0 mg/kg/injection, schedule: Q04DX002 (ip), vehicle: saline with Tween-80): 108 % of control
T/C (endpoint: mean survival time, dose: 100.0 mg/kg/injection, schedule: Q01DX005 (ip), vehicle: saline with Tween-80): 88 % of control
T/C [1]: 95 % of control
T/C (endpoint: mean survival time, dose: 100.0 mg/kg/injection, schedule: Q04DX002 (ip), vehicle: saline with Tween-80): 97 % of control
T/C (endpoint: mean survival time, dose: 200.0 mg/kg/injection, schedule: Q01DX005 (ip), vehicle: saline with Tween-80): 92 % of control
T/C [3]: 92 % of control
T/C (endpoint: mean survival time, dose: 200.0 mg/kg/injection, schedule: Q04DX002 (ip), vehicle: saline with Tween-80): 93 % of control
T/C (endpoint: mean survival time, dose: 400.0 mg/kg/injection, schedule: Q01DX005 (ip), vehicle: saline with Tween-80): 88 % of control
T/C [5]: 88 % of control
T/C (endpoint: mean survival time, dose: 400.0 mg/kg/injection, schedule: Q04DX002 (ip), vehicle: saline with Tween-80): 86 % of control

O=c1oc(-c2cccc(Cl)c2)nc2cc(Cl)ccc12
T/C (endpoint: mean survival time, dose: 100.0 mg/kg/injection, schedule: Q01DX001 (ip), vehicle: Klucel (hydroxypropylcellulose) (HPC)): 98 % of control
T/C (endpoint: mean survival time, dose: 200.0 mg/kg/injection, schedule: Q01DX001 (ip), vehicle: Klucel (hydroxypropylcellulose) (HPC)): 95 % of control
T/C (endpoint: mean survival time, dose: 400.0 mg/kg/injection, schedule: Q01DX001 (ip), vehicle: Klucel (hydroxypropylcellulose) (HPC)): 94 % of control

OC1(CSc2ccccc2)CCCCC1
T/C [8]: 98 % of control
T/C [9]: 101 % of control
T/C [7]: 102 % of control
T/C [1]: 102 % of control
T/C [3]: 104 % of control
T/C [5]: 101 % of control

CCCC/C=C/C1CCCCC1C (centres undefined)
T/C [7]: 100 % of control
T/C [1]: 104 % of control
T/C [3]: 108 % of control

O=C(NC/C(Br)=C/Br)Nc1cccc2c1CCCC2
T/C [2]: 96 % of control
T/C [4]: 101 % of control
T/C [6]: 90 % of control

CC(=O)C1(O)Cc2c(O)c3c(c(O)c2C(OC2CC(N)C(O)C(C)O2)C1)C(=O)c1ccccc1C3=O (centres undefined)
T/C (endpoint: mean survival time, dose: 0.03 mg/kg/injection, schedule: Q01DX009 (ip), vehicle: water): 104 % of control
T/C (endpoint: mean survival time, dose: 0.05 mg/kg/injection, schedule: Q01DX009 (ip), vehicle: water): 110 % of control
T/C (endpoint: mean survival time, dose: 0.1 mg/kg/injection, schedule: Q01DX009 (ip), vehicle: water): 117 % of control
T/C (endpoint: mean survival time, dose: 0.4 mg/kg/injection, schedule: Q01DX009 (ip), vehicle: water): 151 % of control
T/C (endpoint: mean survival time, dose: 0.8 mg/kg/injection, schedule: Q01DX009 (ip), vehicle: water): 92 % of control

C=C1C(=O)O[C@@H]2[C@H](O)[C@@H](C)[C@@H]3C=CC(=O)[C@@]3(C)[C@H](OC(=O)C=C(C)C)[C@H]12
T/C (endpoint: mean survival time, dose: 1.25 mg/kg/injection, schedule: Q01DX009 (ip), vehicle: saline with Tween-80): 100 % of control
T/C (endpoint: mean survival time, dose: 2.5 mg/kg/injection, schedule: Q01DX009 (ip), vehicle: saline with Tween-80): 102 % of control
T/C (endpoint: mean survival time, dose: 5.0 mg/kg/injection, schedule: Q01DX009 (ip), vehicle: saline with Tween-80): 108 % of control
T/C (endpoint: mean survival time, dose: 10.0 mg/kg/injection, schedule: Q01DX009 (ip), vehicle: saline with Tween-80): 106 % of control
T/C (endpoint: mean survival time, dose: 20.0 mg/kg/injection, schedule: Q01DX009 (ip), vehicle: saline with Tween-80): 89 % of control

CC1(C)N=C(N)N=C(N)N1c1cccc(OCCCC#N)c1
T/C (endpoint: mean survival time, dose: 25.0 mg/kg/injection, schedule: Q01DX001 (ip), vehicle: saline): 88 % of control
T/C [13]: 106 % of control
T/C [10]: 101 % of control

CC(C)(C)N1CCc2cc3c(cc2C1)OCO3
T/C [13]: 100 % of control
T/C (endpoint: mean survival time, dose: 75.0 mg/kg/injection, schedule: Q01DX001 (ip), vehicle: saline): 103 % of control
T/C [10]: 96 % of control and 97 % of control

COc1cc2c(cc1O)NC(OC)C1CC(O)CN1C2=O (centres undefined)
T/C (endpoint: median survival time, dose: 0.02 mg/kg/injection, schedule: Q01DX005 (ip), vehicle: DMSO): 101 % of control
T/C (endpoint: median survival time, dose: 0.4 mg/kg/injection, schedule: Q01DX005 (ip), vehicle: DMSO): 102 % of control
T/C (endpoint: median survival time, dose: 0.8 mg/kg/injection, schedule: Q01DX005 (ip), vehicle: DMSO): 100 % of control
T/C (endpoint: median survival time, dose: 1.6 mg/kg/injection, schedule: Q01DX005 (ip), vehicle: DMSO): 102 % of control
T/C (endpoint: median survival time, dose: 3.2 mg/kg/injection, schedule: Q01DX005 (ip), vehicle: DMSO): 111 % of control
T/C (endpoint: median survival time, dose: 6.4 mg/kg/injection, schedule: Q01DX005 (ip), vehicle: DMSO): 115 % of control

CCOC(N)=O
T/C (endpoint: mean survival time, dose: 125.0 mg/kg/injection, schedule: Q01DX009 (ip), vehicle: saline): 98 % of control and 101 % of control
T/C (endpoint: mean survival time, dose: 250.0 mg/kg/injection, schedule: Q01DX009 (ip), vehicle: saline): 104 % of control and 109 % of control
T/C (endpoint: mean survival time, dose: 500.0 mg/kg/injection, schedule: Q01DX009 (ip), vehicle: saline): 116 % of control and 101 % of control
T/C (endpoint: mean survival time, dose: 1000.0 mg/kg/injection, schedule: Q01DX009 (ip), vehicle: saline): 89 % of control and 105 % of control

O=C1C(c2ccccc2)=S=C2Sc3ccccc3N12
T/C (endpoint: mean survival time, dose: 100.0 mg/kg/injection, schedule: Q04DX003 (ip), vehicle: Klucel (hydroxypropylcellulose) (HPC)): 102 % of control
T/C (endpoint: mean survival time, dose: 200.0 mg/kg/injection, schedule: Q04DX003 (ip), vehicle: Klucel (hydroxypropylcellulose) (HPC)): 103 % of control
T/C (endpoint: mean survival time, dose: 400.0 mg/kg/injection, schedule: Q04DX003 (ip), vehicle: Klucel (hydroxypropylcellulose) (HPC)): 96 % of control

COc1ccc(OC)c(NC(=O)Oc2cccc(NC(C)=O)c2)c1
T/C [14]: 105 % of control
T/C [7]: 103 % of control
T/C (endpoint: mean survival time, dose: 100.0 mg/kg/injection, schedule: Q01DX009 (ip), vehicle: Klucel (hydroxypropylcellulose) (HPC)): 102 % of control
T/C [1]: 97 % of control
T/C (endpoint: mean survival time, dose: 200.0 mg/kg/injection, schedule: Q01DX009 (ip), vehicle: Klucel (hydroxypropylcellulose) (HPC)): 100 % of control
T/C [3]: 272 % of control and 100 % of control
T/C (endpoint: mean survival time, dose: 400.0 mg/kg/injection, schedule: Q01DX009 (ip), vehicle: Klucel (hydroxypropylcellulose) (HPC)): 102 % of control
T/C [5]: 92 % of control

Nc1nc2c(c(=O)[nH]1)N(C(=S)Nc1ccccc1)C(CNc1ccc(C(=O)NC(CCC(=O)O)C(=O)O)cc1)CN2 (centres undefined)
T/C [10]: 101 % of control
T/C [11]: 101 % of control
T/C [12]: 104 % of control

CC(C)C1C(=O)CCCC1=O
T/C [2]: 102 % of control
T/C [4]: 105 % of control
T/C [6]: 96 % of control

O=C1CN(CCN2CC(=O)N(CN3CCOCC3)C(=O)C2)CC(=O)N1CN1CCOCC1
T/C (endpoint: median survival time, dose: 12.5 mg/kg/injection, schedule: Q01DX009 (ip), vehicle: water): 111 % of control
T/C (endpoint: median survival time, dose: 25.0 mg/kg/injection, schedule: Q01DX009 (ip), vehicle: water): 118 % of control
T/C (endpoint: median survival time, dose: 50.0 mg/kg/injection, schedule: Q01DX009 (ip), vehicle: water): 164 % of control
T/C (endpoint: median survival time, dose: 100.0 mg/kg/injection, schedule: Q01DX009 (ip), vehicle: water): 181 % of control and 188 % of control
T/C (endpoint: median survival time, dose: 200.0 mg/kg/injection, schedule: Q01DX009 (ip), vehicle: water): 97 % of control and 111 % of control

CCCCCC(C[N+](C)(C)C)C(=O)/C=C/c1ccc(Cl)cc1 (centres undefined)
T/C (endpoint: mean survival time, dose: 12.0 mg/kg/injection, schedule: Q01DX009 (ip), vehicle: Klucel (hydroxypropylcellulose) (HPC)): 96 % of control
T/C (endpoint: mean survival time, dose: 25.0 mg/kg/injection, schedule: Q01DX009 (ip), vehicle: Klucel (hydroxypropylcellulose) (HPC)): 96 % of control
T/C [14]: 96 % of control

CC(NC1=NCCO1)c1cccc2ccccc12 (centres undefined)
T/C [2]: 89 % of control
